Where “and” joins values, the source holds several entries; their conditions need not be identical. Equal values may be shown once. Toxic doses and inconclusive results are not listed. Cut-off read from the data, not from the text of the source: active = T/C of 150% or more; inactive = T/C below 125%.
Tested on: L1210 leukemia ip in BDF1 mice, survival T/C
Test: NCI In Vivo Anticancer Drug Screen. Data for tumor model L1210 Leukemia (intraperitoneal) in B6D2F1 (BDF1) mice
Conditions: endpoint: mean survival time, higher = longer survival
Outline: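 Tumor cells were implanted, animals were treated, and survival was followed. The result divides the treated measurement by the vehicle-control measurement.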

[1] = dose: 100.0 mg/kg/injection, schedule: Q01DX009 (ip), vehicle: saline
[2] = dose: 100.0 mg/kg/injection, schedule: Q04DX003 (ip), vehicle: saline
[3] = dose: 200.0 mg/kg/injection, schedule: Q01DX009 (ip), vehicle: saline
[4] = dose: 200.0 mg/kg/injection, schedule: Q04DX003 (ip), vehicle: saline
[5] = dose: 400.0 mg/kg/injection, schedule: Q04DX003 (ip), vehicle: saline
[6] = dose: 50.0 mg/kg/injection, schedule: Q01DX009 (ip), vehicle: Klucel (hydroxypropylcellulose) (HPC)
[7] = dose: 100.0 mg/kg/injection, schedule: Q01DX009 (ip), vehicle: Klucel (hydroxypropylcellulose) (HPC)
[8] = dose: 200.0 mg/kg/injection, schedule: Q01DX009 (ip), vehicle: Klucel (hydroxypropylcellulose) (HPC)
[9] = dose: 100.0 mg/kg/injection, schedule: Q04DX003 (ip), vehicle: saline with Tween-80
[10] = dose: 200.0 mg/kg/injection, schedule: Q04DX003 (ip), vehicle: saline with Tween-80
[11] = dose: 400.0 mg/kg/injection, schedule: Q04DX003 (ip), vehicle: saline with Tween-80

Measured: T/C

BrCC(CBr)(CBr)CBr
inactive: [1] 103 % of control | [2] 93 % of control | [3] 97 % of control | [4] 100 % of control | [5] 101 % of control

CC1=CC(=O)N(C2=CC(=O)C=CC2=O)/C1=C/C#N
inactive: dose: 12.5 mg/kg/injection, schedule: Q01DX001 (ip), vehicle: Klucel (hydroxypropylcellulose) (HPC) 97 % of control | dose: 25.0 mg/kg/injection, schedule: Q01DX001 (ip), vehicle: Klucel (hydroxypropylcellulose) (HPC) 88 % of control | dose: 50.0 mg/kg/injection, schedule: Q01DX001 (ip), vehicle: Klucel (hydroxypropylcellulose) (HPC) 93 % of control and 89 % of control

ClC1=C(Cl)C2(Cl)C3COCC3C1(Cl)C2(Cl)Cl (configuration not stated)
inactive: [6] 105 % of control | [7] 90 % of control | dose: 100.0 mg/kg/injection, schedule: Q04DX003 (ip), vehicle: Klucel (hydroxypropylcellulose) (HPC) 97 % of control | [8] 90 % of control | dose: 200.0 mg/kg/injection, schedule: Q04DX003 (ip), vehicle: Klucel (hydroxypropylcellulose) (HPC) 95 % of control

O=CNc1nc(Cl)c2ncn(C3OC(COCc4ccccc4)C(OCc4ccccc4)C3OCc3ccccc3)c2n1 (configuration not stated)
inactive: dose: 12.5 mg/kg/injection, schedule: Q01DX005 (ip), vehicle: saline 104 % of control | dose: 25.0 mg/kg/injection, schedule: Q01DX005 (ip), vehicle: saline 98 % of control | dose: 50.0 mg/kg/injection, schedule: Q01DX005 (ip), vehicle: saline 102 % of control | dose: 100.0 mg/kg/injection, schedule: Q01DX005 (ip), vehicle: saline 113 % of control | dose: 200.0 mg/kg/injection, schedule: Q01DX005 (ip), vehicle: saline 106 % of control

CC(=O)C1(O)CCCCC1
inactive: [1] 104 % of control | [2] 92 % of control | [3] 98 % of control | [4] 98 % of control | dose: 400.0 mg/kg/injection, schedule: Q01DX009 (ip), vehicle: saline 109 % of control | [5] 94 % of control

C/C(CCC(=O)O)=N/N=C(N)N
inactive: dose: 15.0 mg/kg/injection, schedule: Q01DX Z (ip), vehicle: carboxymethylcellulose (CMC) 100 % of control | dose: 30.0 mg/kg/injection, schedule: Q01DX Z (ip), vehicle: carboxymethylcellulose (CMC) 106 % of control | dose: 60.0 mg/kg/injection, schedule: Q01DX Z (ip), vehicle: carboxymethylcellulose (CMC) 106 % of control | dose: 120.0 mg/kg/injection, schedule: Q01DX Z (ip), vehicle: carboxymethylcellulose (CMC) 95 % of control and 102 % of control | dose: 240.0 mg/kg/injection, schedule: Q01DX Z (ip), vehicle: carboxymethylcellulose (CMC) 108 % of control | dose: 480.0 mg/kg/injection, schedule: Q01DX Z (ip), vehicle: carboxymethylcellulose (CMC) 104 % of control

O=C1CCN2CCCc3cccc1c32
inactive: dose: 100.0 mg/kg/injection, schedule: Q01DX001 (ip), vehicle: other 100 % of control | dose: 200.0 mg/kg/injection, schedule: Q01DX001 (ip), vehicle: other 97 % of control | dose: 400.0 mg/kg/injection, schedule: Q01DX001 (ip), vehicle: other 102 % of control

[O-][n+]1ccnc2ccccc21
inactive: [2] 100 % of control | [4] 108 % of control | [5] 110 % of control

O=C1CCC(N2C(=O)C3C4CCC(CC4)C3C2=O)C(=O)N1 (configuration not stated)
inactive: [9] 104 % of control | [10] 96 % of control | [11] 100 % of control

CNc1nc(N(C)C)nc(C)c1[N+](=O)[O-]
inactive: [6] 91 % of control | [7] 98 % of control | [8] 105 % of control

Cc1cc(/C=C/c2ccc(N(CCCl)CCCl)cc2)nc2ccccc12
inactive: dose: 100.0 mg/kg/injection, schedule: Q01DX001 (ip), vehicle: saline 107 % of control | dose: 200.0 mg/kg/injection, schedule: Q01DX001 (ip), vehicle: saline 113 % of control | dose: 400.0 mg/kg/injection, schedule: Q01DX001 (ip), vehicle: saline 103 % of control

C(=C\c1ccccc1)/C=N/Nc1nnc(N/N=C/C=C/c2ccccc2)c2ccccc12
inactive: dose: 50.0 mg/kg/injection, schedule: Q01DX001 (ip), vehicle: carboxymethylcellulose (CMC) 102 % of control | dose: 100.0 mg/kg/injection, schedule: Q01DX001 (ip), vehicle: carboxymethylcellulose (CMC) 94 % of control | dose: 200.0 mg/kg/injection, schedule: Q01DX001 (ip), vehicle: carboxymethylcellulose (CMC) 102 % of control | dose: 400.0 mg/kg/injection, schedule: Q01DX001 (ip), vehicle: carboxymethylcellulose (CMC) 90 % of control

CC(C)(C)c1ccc(OC(=S)Nc2ccccc2)cc1
inactive: [9] 111 % of control | [10] 111 % of control | [11] 103 % of control

— PubChem BioAssay AID248 (DTP/NCI, 2004)
